This note sets out measurements from patent US20250034171A1, “IMIDAZOPYRIDINE AMIDES AND RELATED COMPOUNDS FOR USE IN THE TREATMENT OF BACTERIAL INFECTIONS” (priority 2021, published 2025).

In brackets after ≈: the same amount, converted by molar mass. Read-outs that look alike come from different tables or passages of the source.

The subject of the assay is Mycobacterium tuberculosis strain H37Rv. Description: Test 2: MIC determination against M. tuberculosis, resazurin fluorescence. The format is cell-based. The conditions noted are these: Test 2, M. tuberculosis H37Rv; for MIC90: read-out: Bacterial activity MIC90; for IC50: read-out: Bacterial activity pMIC50 (converted).
Setting [1] is: Mycobacterium tuberculosis, H37RV.

On to `CCc1nc2ncc(C)cn2c1C(=O)NCc1cnc(-c2nc3n(n2)CCC(C(F)(F)F)C3)c(C)c1` (stereo not drawn) [Compound 46], for which, under setting [1], the MIC90 was > 0.5 µM and the IC50 is > 501000 pM.
For `O=C(NCc1cnc(-c2nc3n(n2)CCC(C(F)(F)F)C3)c(F)c1)c1c(C(F)(F)F)nc2ccccn12` (stereo not drawn) [Compound 47], under setting [1], the MIC90 was > 0.5 µM and the IC50 is > 501000 pM.
In the case of `CCc1nc2ncc(OC)cn2c1C(=O)NCc1ccc(-c2nc3n(n2)CC[C@@H](C(F)(F)F)C3)cc1` [Compound 48], under setting [1], the MIC90 worked out at 0.026 µM (≈ 0.013 µg/mL) and the IC50 was 8320 pM.
In the same order, the values of `CCc1nc2ccc(F)cn2c1C(=O)NCc1ccc(-c2nc3n(n2)CC[C@@H](C(F)(F)F)C3)cc1` [Compound 52] are 0.16 µM (≈ 0.0778 µg/mL) and 41700 pM.
In the same order, the values of `O=C(NCc1ccc(-c2nc3n(n2)CC[C@@H](C(F)(F)F)C3)cc1)c1c(C(F)(F)F)nc2ncccn12` [Compound 53] are 0.036 µM (≈ 0.0183 µg/mL) and 11000 pM.
With `O=C(NCc1ccc(-c2nc3n(n2)CC[C@@H](C(F)(F)F)C3)cc1)c1c(C(F)(F)F)nc2n1CCCC2` [Compound 54], under setting [1], the MIC90 came to 0.22 µM (≈ 0.113 µg/mL) and the IC50 is 72400 pM.
In the same order, the values of `CCc1nc2ccccn2c1C(=O)NCc1ccc(-c2nc3n(n2)CC[C@@H](C(F)(F)F)C3)cc1` [Compound 55] are 0.0086 µM (≈ 0.00403 µg/mL) and 2950 pM.
As for `CCc1nc2ccccn2c1C(=O)NCc1ccc(-c2nc3n(n2)CC[C@H](C(F)(F)F)C3)cc1` [Compound 57], under setting [1], the MIC90 was 0.022 µM (≈ 0.0103 µg/mL) and the IC50 was 6920 pM.
In the same order, the values of `O=C(NCc1ccc(-c2nc3n(n2)CC[C@H](C(F)(F)F)C3)cc1)c1c(C(F)(F)F)nc2n1CCCC2` [Compound 58] are 0.39 µM (≈ 0.2 µg/mL) and 95500 pM.
Take `O=C(NCc1ccc(-c2nc3n(n2)CC[C@H](C(F)(F)F)C3)cc1)c1c(C(F)F)nc2ccccn12` [Compound 60]: under setting [1], the MIC90 is 0.067 µM (≈ 0.0329 µg/mL) and the IC50 was 17400 pM.
For `O=C(NCc1ccc(-c2nc3n(n2)CC[C@@H](C(F)(F)F)C3)cc1)c1c(C(F)F)nc2ccccn12` [Compound 61] the same measures were 0.036 µM (≈ 0.0177 µg/mL) and 11000 pM.
In the same order, the values of `CCc1nc2ccc(C(F)(F)F)cn2c1C(=O)NCc1ccc(-c2nc3n(n2)CC[C@@H](C(F)(F)F)C3)cc1` [Compound 63] are > 0.46 µM and > 224000 pM.
For `CCc1nc2ccc(C(F)(F)F)cn2c1C(=O)NCc1ccc(-c2nc3n(n2)CC[C@H](C(F)(F)F)C3)cc1` [Compound 64] the same measures were > 0.5 µM and > 501000 pM.
For the compound `CCc1nc2ncc(OC(F)(F)F)cn2c1C(=O)NCc1ccc(-c2nc3n(n2)CC[C@H](C(F)(F)F)C3)cc1` [Compound 84], under setting [1], the MIC90 is > 0.38 µM and the IC50 is > 93300 pM.
Consider `CCc1nc2ncc(OC(F)(F)F)cn2c1C(=O)NCc1ccc(-c2nc3n(n2)CC[C@@H](C(F)(F)F)C3)cc1` [Compound 85], for which, under setting [1], the MIC90 is > 0.5 µM and the IC50 is > 501000 pM.
Turning to `CCc1nc2ncccn2c1C(=O)NCc1ccc(-c2nc3n(n2)CC[C@@H](C(F)(F)F)C3)c(C)c1` [Compound 86], the “Bacterial activity pMIC50” value stood at 6.98 and the MIC90 was found to be 0.44 µM (≈ 0.213 µg/mL).
Consider `CCc1nc2ncccn2c1C(=O)NCc1ccc(-c2nc3n(n2)CC[C@H](C(F)(F)F)C3)c(C)c1` [Compound 87], for which the “Bacterial activity pMIC50” value was 6.97 and the MIC90 came out at 0.47 µM (≈ 0.227 µg/mL).
For `CCc1nc2ncc(C)cn2c1C(=O)NCc1ccc(-c2cn3c(n2)CCCC3)cc1` [Compound 88], under setting [1], the MIC90 was found to be 0.099 µM (≈ 0.041 µg/mL) and the IC50 is 37200 pM.
Regarding `CCc1nc2nc(C)c(Cl)cn2c1C(=O)NCc1ccc(-c2cn3c(n2)CC(C(F)(F)F)CC3)cc1` (stereo not drawn) [Compound 90], under setting [1], the MIC90 was determined as 0.15 µM (≈ 0.0775 µg/mL) and the IC50 is 60300 pM.
In the same order, the values of `CCc1nc2nc(C)ccn2c1C(=O)NCc1ccc(-c2nc3n(n2)CCC(C)C3)cc1` (stereo not drawn) [Compound 92] are 0.2 µM (≈ 0.0859 µg/mL) and 61700 pM.
In the case of `CCc1nc2ncc(C)cn2c1C(=O)NCc1ccc(-c2nc3n(n2)CCC(F)C3)cc1` (stereo not drawn) [Compound 96], under setting [1], the MIC90 is 0.094 µM (≈ 0.0407 µg/mL) and the IC50 was 33900 pM.
For `CCc1nc2ncc(C)cn2c1C(=O)NCc1ccc(-c2nc3n(n2)CCC(C)C3)c(F)c1` (stereo not drawn) [Compound 97] the same measures were 0.057 µM (≈ 0.0255 µg/mL) and 19100 pM.
For `CCOC1CCn2nc(-c3ccc(CNC(=O)c4c(CC)nc5ncc(C)cn45)cc3)nc2C1` (stereo not drawn) [Compound 98] the same measures were 0.11 µM (≈ 0.0506 µg/mL) and 27500 pM.
For `CCc1nc2nc(C)ccn2c1C(=O)NCc1ccc(-c2nc3n(n2)CCC(C(F)F)C3)cc1` (stereo not drawn) [Compound 99] the same measures were 0.22 µM (≈ 0.102 µg/mL) and 70800 pM.
For the compound `Cc1cnc2nc(C(C)C)c(C(=O)NCc3ccc(-c4cn5c(n4)CC(C(F)(F)F)CC5)cc3)n2c1` (stereo not drawn) [Compound 100], under setting [1], the MIC90 was found to be 0.2 µM (≈ 0.0993 µg/mL) and the IC50 was 61700 pM.
In the same order, the values of `O=C(NCc1cnc(-c2cn3c(n2)CC(C(F)(F)F)CC3)c(F)c1)c1c(C(F)(F)F)nc2ccccn12` (stereo not drawn) [Compound 101] are 3.95 µM (≈ 2.08 µg/mL) and 2e+06 pM.
Turning to `CCc1nc2ncc(C)cn2c1C(=O)NCc1ccc(-c2nc3n(n2)CCC(OC)C3)c(F)c1` (stereo not drawn) [Compound 107], under setting [1], the MIC90 was determined as 0.33 µM (≈ 0.153 µg/mL) and the IC50 is 135000 pM.
Take `CCc1nc2ncc(C)cn2c1C(=O)NCc1ccc(-c2cn3c(n2)CC(CC)CC3)cc1` (stereo not drawn) [Compound 109]: the “Bacterial activity pMIC50” value is recorded as 8.04 and the MIC90 is on record as 0.024 µM (≈ 0.0106 µg/mL).
Take `CCc1nc2ncc(C)cn2c1C(=O)NCc1ccc(-c2nc3n(n2)CCC(CC(F)(F)F)C3)cc1` (stereo not drawn) [Compound 110]: under setting [1], the MIC90 is 0.016 µM (≈ 0.00796 µg/mL) and the IC50 was 5890 pM.
For `CCc1nc2ncc(OC)cn2c1C(=O)NCc1ccc(-c2cn3c(n2)C[C@H](C(F)(F)F)CC3)cc1` [Compound 111] the same measures were 0.012 µM (≈ 0.00598 µg/mL) and 4680 pM.
For the compound `CCc1nc2ncc(OC)cn2c1C(=O)NCc1ccc(-c2cn3c(n2)C[C@@H](C(F)(F)F)CC3)cc1` [Compound 112], under setting [1], the MIC90 came out at 0.027 µM (≈ 0.0135 µg/mL) and the IC50 was 8510 pM.
For `CCc1nc2cc(F)ccn2c1C(=O)NCc1ccc(-c2cn3c(n2)C[C@@H](C(F)(F)F)CC3)cc1` [Compound 113] the same measures were 0.034 µM (≈ 0.0165 µg/mL) and 12900 pM.
Turning to `CCc1nc2cc(F)ccn2c1C(=O)NCc1ccc(-c2cn3c(n2)C[C@H](C(F)(F)F)CC3)cc1` [Compound 114], under setting [1], the MIC90 amounted to 0.032 µM (≈ 0.0155 µg/mL) and the IC50 is 7590 pM.
As for `CCc1nc2ncc(C)cn2c1C(=O)NCc1ccc(-c2nc3n(n2)CCC(C)(COC)C3)cc1` (stereo not drawn) [Compound 115], under setting [1], the MIC90 turned out to be 0.096 µM (≈ 0.0455 µg/mL) and the IC50 is 24500 pM.
For `CCc1nc2ncc(C)cn2c1C(=O)NCc1ccc(-c2cn3c(n2)CCC(C(F)(F)F)C3)cc1` (stereo not drawn) [Compound 116] the same measures were 0.0097 µM (≈ 0.00468 µg/mL) and 4570 pM.
Take `CCc1nc2ncc(C)cn2c1C(=O)NCc1ccc(-c2cn3c(n2)CC(C(F)(F)F)CC3)c(F)c1` (stereo not drawn) [Compound 117]: under setting [1], the MIC90 came out at 0.077 µM (≈ 0.0385 µg/mL) and the IC50 is 3090 pM.
Regarding `CCc1nc2ncc(OC)cn2c1C(=O)NCc1ccc(-c2nc3n(n2)CCCC3)cc1` [Compound 119], the “Bacterial activity pMIC50” value is listed as 7.72 and the MIC90 is 0.052 µM (≈ 0.0224 µg/mL).
For the compound `CCc1nc2ncc(C)cn2c1C(=O)NCc1ccc(-c2cn3c(n2)CC(C(F)(F)F)CC3)c(C)c1` (stereo not drawn) [Compound 121], under setting [1], the MIC90 came to 0.035 µM (≈ 0.0174 µg/mL) and the IC50 is 8710 pM.
Turning to `CCc1nc2ncc(C)cn2c1C(=O)NCc1cnc(-c2cn3c(n2)CC(C(F)(F)F)CC3)cc1C` (stereo not drawn) [Compound 122], under setting [1], the MIC90 is 0.21 µM (≈ 0.104 µg/mL) and the IC50 is 43700 pM.
In the case of `CCc1nc2ncc(C)cn2c1C(=O)NCc1cnc(-c2cn3c(n2)CC(C(F)(F)F)CC3)c(C)c1` (stereo not drawn) [Compound 123], under setting [1], the MIC90 was > 0.5 µM and the IC50 was > 501000 pM.
In the same order, the values of `CCc1nc2ncc(C)cn2c1C(=O)NCc1ccc(-c2nc3n(n2)CC(C)CC3)cc1` (stereo not drawn) [Compound 125] are 0.04 µM (≈ 0.0172 µg/mL) and 11200 pM.
For `CCc1nc2ccccn2c1C(=O)NCc1ccc(-c2nc3n(n2)CCC(C(C)(F)F)C3)cc1` (stereo not drawn) [Compound 133] the same measures were 0.051 µM (≈ 0.0237 µg/mL) and 11700 pM.
On to `CCc1nc2n(c1C(=O)NCc1ccc(-c3nc4n(n3)CCC(C(C)(F)F)C4)cc1)CCCC2` (stereo not drawn) [Compound 134], for which, under setting [1], the MIC90 was 0.12 µM (≈ 0.0562 µg/mL) and the IC50 is 25700 pM.
In the same order, the values of `CCc1nc2nc(CN)ccn2c1C(=O)NCc1ccc(-c2nc3n(n2)CCC(C(F)(F)F)C3)cc1` (stereo not drawn) [Compound 138] are > 0.5 µM and > 501000 pM.
On to `CCc1nc2n(c1C(=O)NCc1ccc(-c3nc4n(n3)CC[C@@H](C(F)(F)F)C4)cc1)C[C@H](OC)CC2` [Compound 140], for which, under setting [1], the MIC90 came to 0.33 µM (≈ 0.166 µg/mL) and the IC50 is 115000 pM.
In the same order, the values of `CCc1nc2n(c1C(=O)NCc1ccc(-c3nc4n(n3)CC[C@H](C(F)(F)F)C4)cc1)C[C@H](OC)CC2` [Compound 141] are > 0.5 µM and 166000 pM.
As to `CCc1nc2n(c1C(=O)NCc1ccc(-c3cn4c(n3)C[C@@H](C(F)(F)F)CC4)cc1)CCCC2` [Compound 142], under setting [1], the MIC90 turned out to be 0.097 µM (≈ 0.0457 µg/mL) and the IC50 was 22900 pM.
As to `CCc1nc2ncc(C)cn2c1C(=O)NCc1ccc(-c2nc3n(n2)CCC(COC)C3)c(F)c1` (stereo not drawn) [Compound 143], under setting [1], the MIC90 worked out at 0.092 µM (≈ 0.0439 µg/mL) and the IC50 is 33100 pM.
In the same order, the values of `CCc1nc2cc(F)ccn2c1C(=O)NCc1ccc(-c2nc3n(n2)CCC(C(C)(F)F)C3)cc1` (stereo not drawn) [Compound 145] are 0.041 µM (≈ 0.0198 µg/mL) and 11500 pM.
Turning to `CCc1nc2ncc(C)cn2c1C(=O)NCc1ccc(-c2cc3n(n2)CCCC3)c(C)n1` [Compound 146], under setting [1], the MIC90 turned out to be 0.15 µM (≈ 0.0644 µg/mL) and the IC50 was 42700 pM.
For the compound `CCc1nc2ncc(C)cn2c1C(=O)NCc1ccc(-c2cn3c(n2)CC(C(F)F)CC3)cc1` (stereo not drawn) [Compound 147], the “Bacterial activity pMIC50” value is given as 7.82 and the MIC90 is on record as 0.05 µM (≈ 0.0232 µg/mL).
